Experimental data: patent US8287919B2, “Low environmental impact pesticide made from “gras” ingredients for use against coqui frogs and other species” (priority 2009, dated 2012)
Where two headings read alike, the source gives them in different places.

Columns and labels:
[1] = test system: mature Palm trees; experiment: Phytotoxicity to sprayed palm trees; type: in vivo; details: spray on mature palm trees
Description: Large-scale examples of the product's use and phytotoxicity at the same concentration (about 11.5%) as used in previous examples were also conducted by Palms of Hawaii. A five-gallon back pack sprayer equipped with a mist spray nozzle was used to spray mature Palm trees being prepared for distribution with about a gallon of spray each.
Upon spraying palm trees having frogs, frogs leap off the root balls and crowns and from the junctions between the fronds and tree trunks. The nurseryman rated the complete removal, if not extermination of all frogs from the trees as excellent.

[2] = test system: common plants; set-up: key: severe: most if not all the leaves turned black; flowers and leaves became bleached and recovery was slow; moderate: young leaves and new shoots burned; the outer edges of leaves burned and dropped; dark brown spots appeared where acid may have concentrated; and recovery of the plants were slow; slight: the leaves were spotted white, or lesions formed on the trunk; details: citric acid 25%, three days after treatment, cited from earlier work
[3] = test system: frogs; experiment: Frog killing time with different concentrations; type: in vivo, Eleutherodactylus coqui
Description: Additionally, this formulation killed 10 out of 10 frogs within about 15 minutes.

[4] = test system: Coqui; details: in vivo; cited from earlier work
[5] = test system: human skin; experiment: Contact with human skin; type: in vivo; details: solution with pH of less than 0.5
Description: As discussed above, AGIIS has relatively less dehydrating properties (such as charring sucrose) as compared to the saturated solution of CaSO4 in the same concentration of H2SO4. […] AGIIS has low volatility at room temperature and pressure.
In view of the need to find new phytogenic friendly alternatives for controlling the spread of Coqui frogs, a commercially available food sanitation product (i.e. Acidic Calcium Sulfate (“ACS”) was evaluated for inclusion in the current inventory of chemicals that can be applied as sprays. ACS and functional equivalents thereof are made from ingredients that are generally regarded as safe (“GRAS”), and is approved for use in food by the FDA and USDA. Although not wanting to be bound by theory, the efficacy of this product stems from its very unique characteristic of being able to donate a very high activity of hydrogen ions (low pH), while at the same time, having very low oxidative effects on plants and human skin. For example, a five (5) normal concentration of ACS having a pH of approximately zero may be held in the human hand without harm to the person holding the acid. In contrast, when very small amounts are applied to the skin of Coqui frogs it is quickly absorbed and respiration is immediately impaired with lethal results. […]

## O=C(O)CC(O)(CC(=O)O)C(=O)O [citric acid]
[1]
  phytotoxicity to palm trees: typically causes browning
[2]; guava plant, bromeliad, dendrobium orchid and leatherleaf fern
  phytotoxicity rating: moderate
[2]; passion fruit and payaya
  phytotoxicity rating: slight
[2]; streptocarpus, calathea and eggplants
  phytotoxicity rating: severe

## CCC(=O)O [propionic acid]
[3]; 5% solution
  killing speed compared with standard citric acid: killed equally fast
[3]; 10% solution
  killing speed compared with standard citric acid: killed frogs faster than standard citric acid
[3]; concentrations from about 5% to about 10%
  lethality to frogs: lethal to the frogs in the test group

## [Ca+2].[OH-].[OH-] [hydrated lime]
[4]
  effectiveness in eradicating frogs: not entirely effective

## O=S(=O)(O)O [sulfuric acid]
[5]
  irritation of hand put into solution: an irritation would occur within a relatively short span of time
